According to patent US20250332249A1, “CYTOM[…] CELL EPITOPES AND USES THEREOF” (LA JOLLA INSTITUTE FOR IMMUNOLOGY, priority 2021, published 2025):

Test system: PBMCs from HCMV seropositive subjects
Assay: ex vivo IFN-γ Fluorospot assay
Type: cell-based, human
Settings: 19 HCMV seropositive subjects, individual peptide 10 ug/ml, 20 hr; for No. of subjects responding: IFN-γ; for Magnitude of response: IFN-γ spots (FIG. 1: SFC/10^6 PBMC; no unit in table)
Summary of the method: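 PBMC (200,000/well, triplicate) from HCMV-seropositive donors were stimulated for 20 h at 37 °C with 15-mer peptide pools (2 ug/ml) or single peptides (10 ug/ml). IFN-γ spots were counted by Fluorospot. Positivity required ≥20 SFC/10^6 PBMC over DMSO background, stimulation index >2 and p<0.05.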

In the case of 225 (VVFMGRFSRVYAYDT) [compound 225], the “No. of subjects responding” value is reported as 1 and the Magnitude of response is reported as 70.

In the case of 226 (EKYMVLVSHNLDELA) [compound 226], the “No. of subjects responding” value is reported as 1 and the Magnitude of response is reported as 20.

With 227 (PRLHCLVTTRSSTRE) [compound 227] the “No. of subjects responding” value was 1 and the Magnitude of response was 1277.

With 228 (LRYKWLIRKDRFIVR) [compound 228] the “No. of subjects responding” value was 1 and the Magnitude of response was 3247.

229 (TNIMLQVSNVTNHTL) [compound 229] was tested, and the “No. of subjects responding” value was 1 and the Magnitude of response was 58.

With 230 (IVVGLPFFLEYAKHH) [compound 230] the “No. of subjects responding” value was 2 and the Magnitude of response was 1250.

With 231 (YNRMVRFIINYVGKW) [compound 231] the “No. of subjects responding” value was 1 and the Magnitude of response was 23.

With 232 (ITFCLYVGQFLAYVR) [compound 232] the “No. of subjects responding” value was 1 and the Magnitude of response was 27.

233 (HDPLGLTRFIMRQLM) [compound 233] was tested, and the “No. of subjects responding” value was 1 and the Magnitude of response was 473.

For 234 (FIMRQLMMYPLVLPF) [compound 234], the “No. of subjects responding” value was 1 and the Magnitude of response was 530.

In the case of 235 (GLVYRELHDFYGYLQ) [compound 235], the “No. of subjects responding” value is reported as 1 and the Magnitude of response is reported as 963.
